In US10696615B2, “Prenylated hydroxystilbenes” (The University of Sydney, priority 2011, dated 2020):

Legend:
Assay type in all cases: cell-based, human
CCRF-CEM = experiment: NCI in vitro cancer screen, Leukemia
K-562 = experiment: NCI in vitro cancer screen, Leukemia; conditions: K-562
A549/ATCC = experiment: NCI in vitro cancer screen, Non-Small Cell Lung Cancer
NCI-H23 = experiment: as above; conditions: NCI-H23
NCI-H322M = experiment: as above
NCI-H460 = experiment: as above; conditions: NCI-H460
HT29 = experiment: NCI in vitro cancer screen, Colon Cancer; conditions: HT29
KM12 = experiment: NCI in vitro cancer screen, Colon Cancer; conditions: KM12
SW-620 = experiment: NCI in vitro cancer screen, Colon Cancer; conditions: SW-620
SF-295 = experiment: NCI in vitro cancer screen, CNS Cancer; conditions: SF-295
SNB-19 = experiment: NCI in vitro cancer screen, CNS Cancer; conditions: SNB-19
SNB-75 = experiment: NCI in vitro cancer screen, CNS Cancer; conditions: SNB-75
U251 = experiment: NCI in vitro cancer screen, CNS Cancer; conditions: U251
MDA-MB-435 = experiment: NCI in vitro cancer screen, Melanoma; conditions: MDA-MB-435
SK-MEL-2 = experiment: NCI in vitro cancer screen, Melanoma; conditions: SK-MEL-2
SK-MEL-28 = experiment: NCI in vitro cancer screen, Melanoma; conditions: SK-MEL-28
SK-MEL-5 = experiment: NCI in vitro cancer screen, Melanoma; conditions: SK-MEL-5
UACC-62 = experiment: NCI in vitro cancer screen, Melanoma; conditions: UACC-62
OVCAR-3 = experiment: NCI in vitro cancer screen, Ovarian Cancer; conditions: Homo sapiens, OVCAR-3
OVCAR-5 = experiment: NCI in vitro cancer screen, Ovarian Cancer; conditions: OVCAR-5
OVCAR-8 = experiment: NCI in vitro cancer screen, Ovarian Cancer; conditions: OVCAR-8
SK-OV-3 = experiment: NCI in vitro cancer screen, Ovarian Cancer; conditions: SK-OV-3
ACHN = experiment: NCI in vitro cancer screen, Renal Cancer
RXF-393 = experiment: NCI in vitro cancer screen, Renal Cancer; conditions: Homo sapiens, RXF-393
TK-10 = experiment: NCI in vitro cancer screen, Renal Cancer; conditions: TK-10
UO-31 = experiment: NCI in vitro cancer screen, Renal Cancer; conditions: UO-31
PC-3 = experiment: NCI in vitro cancer screen, Prostate Cancer; conditions: PC-3
DU-145 = experiment: NCI in vitro cancer screen, Prostate Cancer; conditions: DU-145
MCF7 = experiment: NCI in vitro cancer screen, Breast Cancer; conditions: MCF7
T-47D = experiment: NCI in vitro cancer screen, Breast Cancer
MDA-MB-468 = experiment: NCI in vitro cancer screen, Breast Cancer; conditions: MDA-MB-468
[1] = Homo sapiens, read-out: LC50 (the source's name)
[2] = read-out: LC50 (the source's name)

COc1cc(/C=C/c2cc(O)cc(OC)c2CC=C(C)C)ccc1O [USYDS1, (E)-2-(3-methyl-2-buten-1-yl)-4′,5-dihydroxy-3,3′-dimethoxystilbene]
TGI (CCRF-CEM): 24.6 µM
GI50 (CCRF-CEM; Homo sapiens): 350 nM
CC50 (CCRF-CEM; [1]): > 100 µM
GI50 (K-562; Homo sapiens, K562): 40 nM
CC50 (K-562; Homo sapiens, K562, read-out: LC50 (the source's name)): > 100 µM
TGI (K-562): 11.7 µM
TGI (A549/ATCC): 11.3 µM
GI50 (A549/ATCC; Homo sapiens): 500 nM
CC50 (A549/ATCC; [1]): 40.3 µM
GI50 (NCI-H23; Homo sapiens): 280 nM
LC50 (NCI-H23; Homo sapiens): 62.5 µM
TGI (NCI-H23): 15.1 µM
TGI (NCI-H322M): 25.7 µM
GI50 (NCI-H322M; Homo sapiens): 11.8 µM
LC50 (50% lethal concentration) (NCI-H322M; Homo sapiens): 55.9 µM
GI50 (NCI-H460; Homo sapiens): 230 nM
CC50 (NCI-H460; [1]): 42 µM
TGI (NCI-H460): 1.38 µM
TGI (HT29): 15.3 µM
GI50 (HT29; Homo sapiens, HT-29): 4.73 µM
CC50 (HT29; Homo sapiens, HT-29, read-out: LC50 (the source's name)): 44.4 µM
GI50 (KM12; Homo sapiens): 320 nM
CC50 (KM12; [1]): 46.7 µM
TGI (KM12): 13.9 µM
GI50 (SW-620; Homo sapiens): 40 nM
CC50 (SW-620; [1]): 44.3 µM
TGI (SW-620): 15.1 µM
GI50 (SF-295; Homo sapiens): 650 nM
CC50 (SF-295; [1]): 55.7 µM
TGI (SF-295): 16.2 µM
GI50 (SNB-19; Homo sapiens): 170 nM
CC50 (SNB-19; [1]): 51.5 µM
TGI (SNB-19): 19.3 µM
GI50 (SNB-75; Homo sapiens): 30 nM
CC50 (SNB-75; [1]): 72 µM
TGI (SNB-75): 20.2 µM
GI50 (U251; Homo sapiens, U-251): 370 nM
CC50 (U251; Homo sapiens, U-251, read-out: LC50 (the source's name)): 36 µM
TGI (U251): 10.9 µM
GI50 (MDA-MB-435; Homo sapiens): 30 nM
CC50 (MDA-MB-435; [1]): 43 µM
TGI (MDA-MB-435): 13.8 µM
GI50 (SK-MEL-2; Homo sapiens): 320 nM
LC50 (SK-MEL-2; Homo sapiens): 38 µM
TGI (SK-MEL-2): 10.6 µM
GI50 (SK-MEL-28; Homo sapiens): 10.9 µM
LC50 (SK-MEL-28; Homo sapiens): 51.7 µM
TGI (SK-MEL-28): 23.8 µM
GI50 (SK-MEL-5; Homo sapiens): 50 nM
CC50 (SK-MEL-5; [1]): 5.99 µM
TGI (SK-MEL-5): 0.75 µM
GI50 (UACC-62; Homo sapiens): 1620 nM
CC50 (UACC-62; [1]): 46.6 µM
TGI (UACC-62): 18.3 µM
GI50 (OVCAR-3): 260 nM
CC50 (OVCAR-3; [2]): 37.3 µM
GI50 (OVCAR-5; Homo sapiens): 6 µM
CC50 (OVCAR-5; [1]): 55.3 µM
TGI (OVCAR-5): 21.4 µM
GI50 (OVCAR-8; Homo sapiens): 80 nM
CC50 (OVCAR-8; [1]): 50 µM
TGI (OVCAR-8): 11.7 µM
GI50 (SK-OV-3; Homo sapiens): 190 nM
CC50 (SK-OV-3; [1]): 34.7 µM
TGI (SK-OV-3): 11.6 µM
TGI (ACHN): 14.0 µM
GI50 (ACHN; Homo sapiens): 70 nM
CC50 (ACHN; [1]): 44.6 µM
GI50 (RXF-393): 30 nM
CC50 (RXF-393; [2]): 39.1 µM
GI50 (TK-10; Homo sapiens): 4.1 µM
LC50 (TK-10; Homo sapiens): 40.5 µM
TGI (TK-10): 15.7 µM
GI50 (UO-31; Homo sapiens): 250 nM
CC50 (UO-31; [1]): 51.3 µM
TGI (UO-31): 16.0 µM
GI50 (PC-3; Homo sapiens): 420 nM
CC50 (PC-3; [1]): 47.9 µM
TGI (PC-3): 16.1 µM
TGI (DU-145): 12.7 µM
GI50 (DU-145; Homo sapiens): 60 nM
CC50 (DU-145; [1]): 38.6 µM
GI50 (MCF7; Homo sapiens): 230 nM
CC50 (MCF7; [1]): 52.9 µM
TGI (MCF7): 13.0 µM
TGI (T-47D): 19.8 µM
GI50 (T-47D; Homo sapiens, T47D): 720 nM
CC50 (T-47D; Homo sapiens, T47D, read-out: LC50 (the source's name)): 67.4 µM
GI50 (MDA-MB-468; Homo sapiens): 360 nM
CC50 (MDA-MB-468; [1]): 33.2 µM
TGI (MDA-MB-468): 8.37 µM
